Measurements reported in US9169182B2, “Chrysophaentin analogs that inhibit FtsZ protein” (priority 2011, dated 2015).
Converted amounts (≈) assume the structure as drawn.

Columns and labels:
recombinant E. coli FtsZ = recombinant E. coli FtsZ (Escherichia coli (strain K12), UniProt P0A9A6); assay: FtsZ GTPase assay (malachite green); conditions: read-out: FtsZ in vitro IC50 μM Ec-FtsZ
Method: (§3) Solutions were incubated at room temperature for 5 min, followed by addition of 0.25 mM GTP. At the end of a 20-min incubation period, enzyme activity was quenched by addition of 50 μL Malachite Green solution and the wells read at A^625 on an absorbance plate reader.

[1] = test system: clinical isolate of MRSA (USA300); assay: Microbroth dilution assay; type: cell-based; conditions: Staphylococcus aureus
Method: (§1) Compounds 1-8 were tested for antimicrobial activity against Staphylococcus aureus (SA, ATCC 25923), methicillin-resistant S. aureus (MRSA, ATCC BAA-41), multidrug-resistant S. aureus (MDRSA, ATCC BAA-44), Enterococcus faecium (EF, ATCC 49032), vancomycin-resistant E. Faecium (VRE, ATCC 700221), and Bacillus subtilis (ATCC 49343) using a modified disk diffusion assay and microbroth liquid dilution assays. For disk diffusion assays, agar plates seeded with suspensions of bacteria were prepared by adding 500 μL of a 24 h culture of bacteria to 100 mL of autoclaved Mueller Hinton II agar and cooled to 55° C. Seeded liquid agar (10 mL) was transferred immediately to square Petri dishes and allowed to cool for 1 h. Control drugs used for each microorganism included kanamycin (50 μg) for S. aureus, and nitrofurantoin (25 μg) for MRSA. Following incubation at 37° C. for 18 h, zones of inhibition were measured. MICso values for compounds 1 and 4-8 were determined using a microbroth dilution assay outlined in the Clinical and Laboratory Standards Institute methods for susceptibility tests for bacteria that grow aerobically. Briefly, single bacterial colonies were used to inoculate 4 mL of Trypticase Soy broth (BD) for overnight growth and inoculum for each were diluted to 5×10^5 CFU/mL using the 0.5 McFarland standard. In a 96 well plate (Costar, round bottom), control antibiotics (oxacillin for SA and MRSA, vancomycin for EF and VRE, chloramphenicol for B. subtilis) or natural product inhibitors were added to Mueller Hinton II broth (for S. aureus, MRSA, and B. subtilis) or 10% brain heart infusion broth (for E. faecium and VRE) in the first column of the well plates, and serially diluted across the plate, reserving wells for a positive growth control (no treatment). 10 μL of diluted bacteria were added to all wells with the exception of those kept for broth blanks (MHII or brain heart infusion broth only). Plates were incubated at 37° C. overnight and read at absorbance 600 nm on a Molecular Devices plate reader. Growth curves were plotted and ICso values obtained using Kalidagraph software.
(§2) Compounds J23 and J24 were tested for antimicrobial activity against Bacillus subtilis (BS, ATCC 49343), Staphylococcus aureus (SA, ATCC 25923), methicillin-resistant S. aureus (MRSA, ATCC BAA-41), multidrug-resistant S. aureus (MDRSA, ATCC BAA-44), Escherichia coli (EC, ATCC 8739), envelope-deficient E. coli (envA-EC; permeable (envA-) BL21(DE3)pLysS E. coli [constructed using standard P1 transduction methodology, utilizing a Tn10transposon linked to the envA1 gene]; Wang et al., J. Biol. Chem. 2003, 278(45):44424-44428), a clinical isolate of S. aureus (UAMS-1; clinical osteomyelitis isolate; Olson et al., PLoS Pathogens 2011, 7(2):e1001287, www.plospathogens.org), and a clinical isolate of MRSA (USA300; the strain USA300-0114 is the predominant cause of U.S. community-associated methicillin resistant S. aureus infections). MIC50 values were determined using a microbroth dilution assay as described in Example 2. E. coli was grown in Mueller Hinton II broth.

[2] = test system: Escherichia coli (EC, ATCC 8739); assay: Microbroth dilution assay; type: cell-based; conditions: ATCC8739
Method: as §1, §2

[3] = test system: methicillin-resistant S. aureus (MRSA, ATCC BAA-41); assay: Microbroth dilution assay; type: cell-based; conditions: Staphylococcus aureus
Method: as §1, §2

[4] = test system: Bacillus subtilis (ATCC 49343); assay: Microbroth dilution assay; type: cell-based; conditions: ATCC49343, read-out: MIC50 values in μM BS
Method: as §1, §2

[5] = test system: envelope-deficient E. coli (envA-EC); assay: Microbroth dilution assay; type: cell-based; conditions: Escherichia coli, read-out: MIC50 values in μM envA-EC
Method: as §1, §2

[6] = test system: Staphylococcus aureus (SA, ATCC 25923); assay: Microbroth dilution assay; type: cell-based; conditions: ATCC25923, microbroth dilution
Method: as §1, §2

[7] = test system: multidrug-resistant S. aureus (MDRSA, ATCC BAA-44); assay: Microbroth dilution assay; type: cell-based; conditions: Staphylococcus aureus, ATCCBAA44, read-out: MIC50 values in μM MDRSA
Method: as §1, §2

[8] = test system: clinical isolate of S. aureus (UAMS-1); assay: Microbroth dilution assay; type: cell-based; conditions: Staphylococcus aureus
Method: as §1, §2

Sa-FtsZ = Sa-FtsZ (Staphylococcus aureus, UniProt P0A031); type: biochemical; conditions: GTPase assay; read-out: FtsZ in vitro IC50 μM Sa-FtsZ
Method: as §3

Chain of recombinant E. coli FtsZ (P0A9A6 whole entry, looked up): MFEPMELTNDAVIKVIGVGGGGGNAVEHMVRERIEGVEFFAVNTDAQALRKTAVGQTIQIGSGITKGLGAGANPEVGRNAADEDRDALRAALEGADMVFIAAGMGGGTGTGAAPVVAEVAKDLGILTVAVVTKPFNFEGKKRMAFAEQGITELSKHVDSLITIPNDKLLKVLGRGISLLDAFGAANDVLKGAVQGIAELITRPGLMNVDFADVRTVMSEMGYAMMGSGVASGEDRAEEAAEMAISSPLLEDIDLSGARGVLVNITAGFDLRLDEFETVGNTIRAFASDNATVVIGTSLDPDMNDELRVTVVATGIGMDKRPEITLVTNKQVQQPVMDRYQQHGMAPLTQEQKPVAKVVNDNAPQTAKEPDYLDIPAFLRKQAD

Structure (SMILES) | IC50 (recombinant E. coli FtsZ) | MIC50 [1] | MIC50 [2] | MIC50 [3] | MIC50 [4] | MIC50 [5] | MIC50 [6] | MIC50 [7] | MIC50 [8] | IC50 (Sa-FtsZ)
COc1cc(C/C=C(/Cl)Cc2cc(O)cc(O)c2)c(OC)cc1Cl [Compound J23, (E)-5-(2-chloro-4-(4-chloro-2,5-dimethoxyphenyl)but-2-enyl)benzene-1,3-diol] | 36 ± 7 µM | 6 µM (≈ 2.22 µg/mL) | > 270 µM | 12 µM (≈ 4.43 µg/mL) | 19 µM (≈ 7.02 µg/mL) | 120 µM (≈ 44.3 µg/mL) | 12 µM (≈ 4.43 µg/mL) | 12 µM (≈ 4.43 µg/mL) | 7.4 µM (≈ 2.73 µg/mL) | 44 ± 12 µM
Oc1cc(O)cc(C/C(Cl)=C\Cc2cc(O)c(Cl)cc2O)c1 [Compound J24, (E)-5-(2-chloro-4-(4-chloro-2,5-dihydroxyphenyl)but-2-enyl)-benzene-1,3-diol] | 160 ± 30 µM | – | > 290 µM | 22 µM (≈ 7.51 µg/mL) | 11 µM (≈ 3.75 µg/mL) | 72 µM (≈ 24.6 µg/mL) | 18 µM (≈ 6.14 µg/mL) | 26 µM (≈ 8.87 µg/mL) | – | 88 ± 11 µM
